PMC9250534, “Synthesis and direct assay of large macrocycle diversities by combinatorial late-stage modification at picomole scale” (Nature Communications, 2022)
Numbered stars: 1 amine (or outer) side, 2 acyl side, 3 side chain; on linkers, the order of the positions; unused ones are H or OH. Bridge positions count the residues as written; N and C are the ends. Square brackets hold non-standard residues; d marks the D form. Peptide text beside a SMILES is read from it. * marks the point of attachment. 2Thenoyl(5-Cl) = O=C(c1ccc(Cl)s1)*; Benzoyl(4-Cl) = O=C(c1ccc(Cl)cc1)*; Cysteamide = C(CS[*:3])N[*:1]; X1 = O=C(/C=C/c1ccccc1)*; Dap = NC[C@H](N)C(=O)O; Mpa = O=C(O)CCS

Target: MDM2 (Homo sapiens, UniProt Q00987)
Test: MDM2 binding screen: displacement of fluorescent p53 peptide probe FP53 (fluorescence polarization)
Settings: crude macrocycle reactions; for fraction fluorescent probe displaced, Screen: initial screen
Summary of the method: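 Macrocycle reaction products at a final 10 µM were tested for displacement of a p53-based fluorescent peptide from human MDM2. Fluorescence anisotropy (ex 485/em 535 nm) was read once per macrocycle at 25 °C.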

Sequence of MDM2 (Q00987 whole entry): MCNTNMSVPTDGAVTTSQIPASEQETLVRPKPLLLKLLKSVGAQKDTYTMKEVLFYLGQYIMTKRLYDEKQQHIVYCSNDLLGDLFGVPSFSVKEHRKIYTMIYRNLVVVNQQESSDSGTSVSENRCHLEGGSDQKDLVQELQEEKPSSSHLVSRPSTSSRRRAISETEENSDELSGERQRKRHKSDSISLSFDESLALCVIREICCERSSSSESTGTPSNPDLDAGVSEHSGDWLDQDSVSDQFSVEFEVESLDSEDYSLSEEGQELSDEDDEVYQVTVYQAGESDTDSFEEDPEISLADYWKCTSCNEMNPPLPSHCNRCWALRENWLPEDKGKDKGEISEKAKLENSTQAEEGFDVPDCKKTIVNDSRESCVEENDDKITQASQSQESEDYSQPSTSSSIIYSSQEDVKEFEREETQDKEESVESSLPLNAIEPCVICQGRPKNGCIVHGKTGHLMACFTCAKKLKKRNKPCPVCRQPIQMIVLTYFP

Compound	fraction fluorescent probe displaced, Screen (Acid 91)	fraction fluorescent probe displaced, Replicate (Acid 91)	fraction fluorescent probe displaced, Screen (Acid 14)	fraction fluorescent probe displaced, Replicate (Acid 14)	also measured
O=C(/C=C/c1ccccc1)NC[C@@H]1NC(=O)CCSSCCNC(=O)[C@H](Cc2ccccc2)NC(=O)[C@@H]2CCCN2C1=O [X D3 B1 F Acid 91] ([Mpa][Dap](X1)PF-Cysteamide; disulfide 1-C)	0.00268	-0.00827	–	–	–
O=C1CCSSCCNC(=O)[C@H](Cc2c[nH]c3ccccc23)NC(=O)[C@@H]2CCCN2C(=O)[C@H](CNC(=O)c2ccc(Cl)s2)N1 [X D3 B1 W Acid 14] ([Mpa][Dap](2Thenoyl(5-Cl))PW-Cysteamide; disulfide 1-C)	–	–	0.17	0.10	–
O=C1CCSSCCNC(=O)[C@H](Cc2c[nH]c3ccccc23)NC(=O)[C@@H]2CCCN2C(=O)[C@H](CNC(=O)c2ccc(Cl)cc2)N1 [X D3 B1 W Acid 25] ([Mpa][Dap](Benzoyl(4-Cl))PW-Cysteamide; disulfide 1-C)	–	–	–	–	fraction fluorescent probe displaced, Screen (Acid 25): 0.28; fraction fluorescent probe displaced, Replicate (Acid 25): 0.15
O=C(/C=C/c1ccccc1)NC[C@@H]1NC(=O)CCSSCCNC(=O)[C@H](Cc2c[nH]c3ccccc23)NC(=O)[C@@H]2CCCN2C1=O [X D3 B1 W Acid 91] ([Mpa][Dap](X1)PW-Cysteamide; disulfide 1-C)	-0.0241	0.04	–	–	–
O=C1CCSSCCNC(=O)[C@H](Cc2c[nH]c3ccccc23)NC(=O)CCNC(=O)[C@H](CNC(=O)c2ccc(Cl)s2)N1 [X D3 B2 W Acid 14]	–	–	0.17	0.25	–
O=C1CCSSCCNC(=O)[C@H](Cc2c[nH]c3ccccc23)NC(=O)CCNC(=O)[C@H](CNC(=O)c2ccc(Cl)cc2)N1 [X D3 B2 W Acid 25]	–	–	–	–	fraction fluorescent probe displaced, Screen (Acid 25): 0.12; fraction fluorescent probe displaced, Replicate (Acid 25): 0.0465
O=C(C=Cc1ccccc1)NCC1NC(=O)CCSSCCNC(=O)C(Cc2c[nH]c3ccccc23)NC(=O)CCNC1=O (centres unmarked) [X D3 B2 W Acid 91]	0.11	-0.0333	–	–	–
O=C1CCSSCCNC(=O)[C@H](Cc2c[nH]c3ccccc23)NC(=O)[C@H]2CCCN(C2)C(=O)[C@H](CNC(=O)c2ccc(Cl)s2)N1 [X D3 B4 W Acid 14]	–	–	0.08	0.12	–
O=C1CCSSCCNC(=O)[C@H](Cc2c[nH]c3ccccc23)NC(=O)[C@H]2CCCN(C2)C(=O)[C@H](CNC(=O)c2ccc(Cl)cc2)N1 [X D3 B4 W Acid 25]	–	–	–	–	fraction fluorescent probe displaced, Screen (Acid 25): 0.25; fraction fluorescent probe displaced, Replicate (Acid 25): 0.20
O=C(C=Cc1ccccc1)NCC1NC(=O)CCSSCCNC(=O)C(Cc2c[nH]c3ccccc23)NC(=O)C2CCCN(C2)C1=O (centres unmarked) [X D3 B4 W Acid 91]	0.11	0.09	–	–	–
O=C1CCSSCCNC(=O)[C@H](Cc2c[nH]c3ccccc23)NC(=O)c2cccc(c2)CNC(=O)[C@H](CNC(=O)c2ccc(Cl)cc2)N1 [X D3 B5 W Acid 25]	–	–	–	–	fraction fluorescent probe displaced, Screen (Acid 25): 0.25; fraction fluorescent probe displaced, Replicate (Acid 25): 0.10
O=C(/C=C/c1ccccc1)NC[C@@H]1NC(=O)CCSSCCNC(=O)[C@@H]2CCCN2C(=O)[C@H](Cc2ccccc2)NC1=O [X D3 F B1 Acid 91] ([Mpa][Dap](X1)FP-Cysteamide; disulfide 1-C)	-0.05	-0.06	–	–	–
O=C1CCNC(=O)[C@H](Cc2ccccc2)NC(=O)[C@H](CNC(=O)c2ccc(Cl)cc2)NC(=O)CCSSCCN1 [X D3 F B2 Acid 25]	–	–	–	–	fraction fluorescent probe displaced, Screen (Acid 25): -0.00813; fraction fluorescent probe displaced, Replicate (Acid 25): 0.0211
O=C1CCSSCCNC(=O)c2cccc(c2)CNC(=O)C(Cc2ccccc2)NC(=O)C(CNC(=O)c2ccc(Cl)cc2)N1 (centres unmarked) [X D3 F B5 Acid 25]	–	–	–	–	fraction fluorescent probe displaced, Screen (Acid 25): 0.0569; fraction fluorescent probe displaced, Replicate (Acid 25): 0.10
O=C1CCSSCCNC(=O)[C@@H]2CCCN2C(=O)[C@H](Cc2c[nH]c3ccccc23)NC(=O)[C@H](CNC(=O)c2ccc(Cl)s2)N1 [X D3 W B1 Acid 14] ([Mpa][Dap](2Thenoyl(5-Cl))WP-Cysteamide; disulfide 1-C)	–	–	0.14	0.17	–
O=C1CCSSCCNC(=O)[C@@H]2CCCN2C(=O)[C@H](Cc2c[nH]c3ccccc23)NC(=O)[C@H](CNC(=O)c2ccc(Cl)cc2)N1 [X D3 W B1 Acid 25] ([Mpa][Dap](Benzoyl(4-Cl))WP-Cysteamide; disulfide 1-C)	–	–	–	–	fraction fluorescent probe displaced, Screen (Acid 25): 0.12; fraction fluorescent probe displaced, Replicate (Acid 25): 0.22
O=C1CCNC(=O)[C@H](Cc2c[nH]c3ccccc23)NC(=O)[C@H](CNC(=O)c2ccc(Cl)s2)NC(=O)CCSSCCN1 [X D3 W B2 Acid 14]	–	–	0.23	0.20	–
O=C1CCNC(=O)[C@H](Cc2c[nH]c3ccccc23)NC(=O)[C@H](CNC(=O)c2ccc(Cl)cc2)NC(=O)CCSSCCN1 [X D3 W B2 Acid 25]	–	–	–	–	fraction fluorescent probe displaced, Screen (Acid 25): 0.15; fraction fluorescent probe displaced, Replicate (Acid 25): 0.20
O=C(/C=C/c1ccccc1)NC[C@@H]1NC(=O)CCSSCCNC(=O)CCNC(=O)[C@H](Cc2c[nH]c3ccccc23)NC1=O [X D3 W B2 Acid 91]	0.19	0.0168	–	–	–

The next lines start with results.

fraction fluorescent probe displaced, Screen (Acid 91)	fraction fluorescent probe displaced, Replicate (Acid 91)	fraction fluorescent probe displaced, Screen (Acid 14)	fraction fluorescent probe displaced, Replicate (Acid 14)	Compound	also measured
–	–	0.17	0.10	O=C1CCSSCCNC(=O)[C@H](Cc2ccccc2)NC(=O)CCNC(=O)[C@H](CNC(=O)c2ccc(Cl)s2)N1 [X D3 B2 F Acid 14]	–
0.08	0.04	–	–	O=C(/C=C/c1ccccc1)NC[C@@H]1NC(=O)CCSSCCNC(=O)[C@H](Cc2ccccc2)NC(=O)CCNC1=O [X D3 B2 F Acid 91]	–
–	–	0.0241	0.10	O=C1CCSSCCNC(=O)[C@H](Cc2ccccc2)NC(=O)[C@H]2CCCN(C2)C(=O)[C@H](CNC(=O)c2ccc(Cl)s2)N1 [X D3 B4 F Acid 14]	–
-0.18	-0.0333	–	–	O=C(/C=C/c1ccccc1)NC[C@@H]1NC(=O)CCSSCCNC(=O)[C@H](Cc2ccccc2)NC(=O)c2cccc(c2)CNC1=O [X D3 B5 F Acid 91]	–
–	–	0.14	0.20	O=C1CCSSCCNC(=O)[C@H](Cc2c[nH]c3ccccc23)NC(=O)c2cccc(c2)CNC(=O)[C@H](CNC(=O)c2ccc(Cl)s2)N1 [X D3 B5 W Acid 14]	–
0.08	0.14	–	–	O=C(C=Cc1ccccc1)NCC1NC(=O)CCSSCCNC(=O)C(Cc2c[nH]c3ccccc23)NC(=O)c2cccc(c2)CNC1=O (centres unmarked) [X D3 B5 W Acid 91]	–
–	–	0.053	0.10	O=C1CCNC(=O)[C@H](Cc2ccccc2)NC(=O)[C@H](CNC(=O)c2ccc(Cl)s2)NC(=O)CCSSCCN1 [X D3 F B2 Acid 14]	–
0.0563	-0.0333	–	–	O=C(/C=C/c1ccccc1)NC[C@@H]1NC(=O)CCSSCCNC(=O)CCNC(=O)[C@H](Cc2ccccc2)NC1=O [X D3 F B2 Acid 91]	–
–	–	0.053	-0.03	O=C1CCSSCCNC(=O)[C@H]2CCCN(C2)C(=O)[C@H](Cc2ccccc2)NC(=O)[C@H](CNC(=O)c2ccc(Cl)s2)N1 [X D3 F B4 Acid 14]	–
